Assay: heating test: absorbance at 454 nm of ammonium adipate solutions after heating the adipic acid batches
Type: physicochemical
Details: 50 g heated to 215° C. for 205 min, then placed in 415 ml aqueous 5% ammonia solution, reference adipic acid (A) = 1
Protocol: The adipic acid batches (A) and (B) are subjected to a heating test. This test consists in heating 50 g of each batch to 215° C. for 205 min and then placing each of them in 415 ml of aqueous 5% ammonia solution. The absorbence at 454 nm of the ammonium adipate solutions obtained is then measured.
The results below are obtained, expressed as relative absorbences, the reference adipic acid (A) representing the value 1:
This test consists in heating 50 g of each batch to 215° C. for 205 min and then placing each of them in 415 ml of aqueous 5% ammonia solution.
The absorbance at 454 nm of the ammonium adipate solutions obtained is then measured.
The following results are obtained, expressed as relative absorbances, the reference adipic acid (A) representing the value 1: […]

O=C(O)CCCCC(=O)O [adipic acid (C), adipic acid]
Relative absorbance at 454 nm (listed as C): 0.3

O=C(O)CCCCC(=O)O [adipic acid (A), adipic acid, reference compound]
Relative absorbance at 454 nm: 1 | relative absorbence at 454 nm: 1

O=C(O)CCCCC(=O)O [adipic acid (B), adipic acid]
relative absorbence at 454 nm: 0.25

O=C(O)CCCCC(=O)O [adipic acid (E), adipic acid]
Relative absorbance at 454 nm (listed as E): 0.5

O=C(O)CCCCC(=O)O [adipic acid (D), adipic acid]
Relative absorbance at 454 nm (listed as D): 0.2

— patent publication US6559339B1, “Method for crystallizing carboxylic acid” (Rhodia Fiber & Resin Intermediates, priority 1998, dated 2003)
